Test results taken from publication PMC5218480 (PLoS ONE, 2017).

Tested on: MV-4-11 cells
Assay: Gene expression microarray analysis (Affymetrix PrimeView) and GSEA
Type: cell-based, human
Parameters: RFU PODN (11730768_x_at) / Fold change /veh PODN (11730768_x_at) / RFU LINC00158 (11744669_a_at) / Fold change /veh LINC00158 (11744669_a_at) / RFU DUSP10 (11751237_a_at) / Fold change /veh DUSP10 (11751237_a_at) / RFU ID3 (11757404_x_at) / Fold change /veh ID3 (11757404_x_at) / RFU PLEKHG5 (11737974_s_at) / Fold change /veh PLEKHG5 (11737974_s_at) / RFU LRRC4B (11730491_at) / Fold change /veh LRRC4B (11730491_at) / RFU GIMAP4 (11747438_a_at) / Fold change /veh GIMAP4 (11747438_a_at) / RFU KRT8 (11758183_x_at) / Fold change /veh KRT8 (11758183_x_at) / RFU CNN1 (11734310_a_at) / Fold change /veh CNN1 (11734310_a_at) / RFU VPS37D (11726825_at) / Fold change /veh VPS37D (11726825_at) / RFU C10orf10 (11716522_x_at) / Fold change /veh C10orf10 (11716522_x_at) / RFU KIR2DL2 /// KIR2DL4 /// KIR2DL5A /// KIR2DL5B /// KIR2DS1 /// KIR2DS2 /// KIR2DS3 /// KIR2DS4 /// KIR3DL3 /// KIR3DL3 /// KIR3DS1 (11738374_at) / Fold change /veh KIR2DL2 /// KIR2DL4 /// KIR2DL5A /// KIR2DL5B /// KIR2DS1 /// KIR2DS2 /// KIR2DS3 /// KIR2DS4 /// KIR3DL3 /// KIR3DL3 /// KIR3DS1 (11738374_at) / RFU C1QL1 (11718748_at) / Fold change /veh C1QL1 (11718748_at) / RFU TMPRSS4 (11747572_a_at) / Fold change /veh TMPRSS4 (11747572_a_at) / RFU HAMP (11756126_x_at) / Fold change /veh HAMP (11756126_x_at) / RFU RNFT2 (11725882_a_at) / Fold change /veh RNFT2 (11725882_a_at) / RFU NR4A2 (11747474_a_at) / Fold change /veh NR4A2 (11747474_a_at) / RFU ABCC12 (11746883_a_at) / Fold change /veh ABCC12 (11746883_a_at) / RFU TMEM136 (11760407_x_at) / Fold change /veh TMEM136 (11760407_x_at) / RFU CLDN22 /// WWC2 (11732394_at) / Fold change /veh CLDN22 /// WWC2 (11732394_at) / RFU HLA-DPB1 (11760878_x_at) / Fold change /veh HLA-DPB1 (11760878_x_at) / RFU SPINT1 (11716480_a_at) / Fold change /veh SPINT1 (11716480_a_at) / RFU GAP43 (11754022_s_at) / Fold change /veh GAP43 (11754022_s_at) / RFU A4GNT (11735810_at) / Fold change /veh A4GNT (11735810_at) / RFU PRB3 (11715151_x_at) / Fold change /veh PRB3 (11715151_x_at) / RFU TUBB4B (11761932_at) / Fold change /veh TUBB4B (11761932_at) / RFU CAPN14 (11732068_a_at) / Fold change /veh CAPN14 (11732068_a_at) / RFU TMCC2 (11721928_a_at) / Fold change /veh TMCC2 (11721928_a_at) / RFU IRGQ (11745062_a_at) / Fold change /veh IRGQ (11745062_a_at) / RFU FAM174B (11720279_a_at) / Fold change /veh FAM174B (11720279_a_at) / RFU TMPRSS4 (11748680_a_at) / Fold change /veh TMPRSS4 (11748680_a_at) / RFU FAM212B (11763350_a_at) / Fold change /veh FAM212B (11763350_a_at) / RFU PLEKHG5 (11743358_a_at) / Fold change /veh PLEKHG5 (11743358_a_at) / RFU ZSCAN30 (11745921_a_at) / Fold change /veh ZSCAN30 (11745921_a_at) / RFU CMKLR1 (11741424_a_at) / Fold change /veh CMKLR1 (11741424_a_at) / RFU LOC101060620 /// MAPK8IP1 (11723275_at) / Fold change /veh LOC101060620 /// MAPK8IP1 (11723275_at) / RFU SPTSSB (11747773_x_at) / Fold change /veh SPTSSB (11747773_x_at) / RFU PRSS12 (11739890_at) / Fold change /veh PRSS12 (11739890_at) / RFU BIN1 (11741810_x_at) / Fold change /veh BIN1 (11741810_x_at) / RFU WNT11 (11732464_a_at) / Fold change /veh WNT11 (11732464_a_at) / RFU C10orf10 (11716521_a_at) / Fold change /veh C10orf10 (11716521_a_at) / RFU C5orf56 (11738089_at) / Fold change /veh C5orf56 (11738089_at) / RFU CYB561 (11721691_x_at) / Fold change /veh CYB561 (11721691_x_at) / RFU ANKRD19P (11752326_a_at) / Fold change /veh ANKRD19P (11752326_a_at) / RFU OR2T12 /// OR2T33 /// OR2T8 (11738714_s_at) / Fold change /veh OR2T12 /// OR2T33 /// OR2T8 (11738714_s_at) / RFU VCAN (11748164_a_at) / Fold change /veh VCAN (11748164_a_at) / RFU JSRP1 (11732532_at) / Fold change /veh JSRP1 (11732532_at) / RFU KRTAP10-11 (11738290_x_at) / Fold change /veh KRTAP10-11 (11738290_x_at) / RFU MYO3A (11730013_a_at) / Fold change /veh MYO3A (11730013_a_at) / RFU EBF3 (11725865_a_at) / Fold change /veh EBF3 (11725865_a_at) / RFU CAMK2N1 (11719241_x_at) / Fold change /veh CAMK2N1 (11719241_x_at) / RFU C5orf56 (11738088_a_at) / Fold change /veh C5orf56 (11738088_a_at) / RFU OLFML3 (11715873_a_at) / Fold change /veh OLFML3 (11715873_a_at) / RFU LOC100653217 /// NTM (11731650_a_at) / Fold change /veh LOC100653217 /// NTM (11731650_a_at) / RFU MAPK11 (11762145_a_at) / Fold change /veh MAPK11 (11762145_a_at) / RFU FIZ1 (11724087_x_at) / Fold change /veh FIZ1 (11724087_x_at) / RFU OASL (11726364_x_at) / Fold change /veh OASL (11726364_x_at) / RFU SOX15 (11748057_x_at) / Fold change /veh SOX15 (11748057_x_at) / RFU CD79A (11719716_a_at) / Fold change /veh CD79A (11719716_a_at) / RFU HIST1H1D (11736915_at) / Fold change /veh HIST1H1D (11736915_at) / RFU CASKIN2 (11723855_a_at) / Fold change /veh CASKIN2 (11723855_a_at) / RFU LOC730098 (11760151_x_at) / Fold change /veh LOC730098 (11760151_x_at) / RFU OR4N2 (11742367_at) / Fold change /veh OR4N2 (11742367_at) / RFU PRRT2 (11749266_a_at) / Fold change /veh PRRT2 (11749266_a_at) / RFU SNX32 (11753110_a_at) / Fold change /veh SNX32 (11753110_a_at) / RFU CDHR5 (11726645_a_at) / Fold change /veh CDHR5 (11726645_a_at) / RFU RCAN1 (11760418_a_at) / Fold change /veh RCAN1 (11760418_a_at) / RFU FAM167A (11723789_a_at) / Fold change /veh FAM167A (11723789_a_at) / RFU FAM26E (11764081_at) / Fold change /veh FAM26E (11764081_at) / RFU ISYNA1 (11749810_s_at) / Fold change /veh ISYNA1 (11749810_s_at) / RFU ACY1 (11761880_at) / Fold change /veh ACY1 (11761880_at) / RFU 11764098_at / Fold change /veh 11764098_at / RFU SAMD14 (11745864_x_at) / Fold change /veh SAMD14 (11745864_x_at) / RFU NPB (11741838_a_at) / Fold change /veh NPB (11741838_a_at) / RFU TMPRSS6 (11731388_a_at) / Fold change /veh TMPRSS6 (11731388_a_at) / RFU KRTAP10-2 (11738614_at) / Fold change /veh KRTAP10-2 (11738614_at) / RFU ARHGAP8 /// PRR5-ARHGAP8 (11727945_x_at) / Fold change /veh ARHGAP8 /// PRR5-ARHGAP8 (11727945_x_at) / RFU KRTAP5-7 /// NADSYN1 (11734609_at) / Fold change /veh KRTAP5-7 /// NADSYN1 (11734609_at) / RFU RASL12 (11751679_a_at) / Fold change /veh RASL12 (11751679_a_at) / RFU CDKN2B (11736163_a_at) / Fold change /veh CDKN2B (11736163_a_at) / RFU PRF1 (11729649_at) / Fold change /veh PRF1 (11729649_at) / RFU, ZNF638 /// ZNF638-IT1 / Fold change vs veh, ZNF638 /// ZNF638-IT1 / RFU, PANK3 / Fold change vs veh, PANK3 / RFU, SH3YL1 / Fold change vs veh, SH3YL1 / RFU, ZEB2 / Fold change vs veh, ZEB2 / RFU, NRIP1 / Fold change vs veh, NRIP1 / RFU, PTTG1IP / Fold change vs veh, PTTG1IP / RFU, CAPN2 / Fold change vs veh, CAPN2 / RFU, MED14 / Fold change vs veh, MED14 / RFU, SNORA58 / Fold change vs veh, SNORA58 / RFU, C1orf63 / Fold change vs veh, C1orf63 / RFU, LRRFIP1 / Fold change vs veh, LRRFIP1 / RFU, NDUFAF7 / Fold change vs veh, NDUFAF7 / RFU, SLC12A2 / Fold change vs veh, SLC12A2 / RFU, IBTK / Fold change vs veh, IBTK / RFU, ESF1 / Fold change vs veh, ESF1 / Fold change vs veh, TMEM50B / RFU, TAOK1 / Fold change vs veh, TAOK1 / RFU, ACBD3 / Fold change vs veh, ACBD3 / RFU, TMA16 / Fold change vs veh, TMA16 / RFU, RWDD3 / Fold change vs veh, RWDD3 / RFU, BCAT1 / Fold change vs veh, BCAT1 / RFU, EDEM3 / Fold change vs veh, EDEM3 / RFU, TMEM33 / Fold change vs veh, TMEM33 / RFU, WDR75 / Fold change vs veh, WDR75 / RFU, AHCTF1 / Fold change vs veh, AHCTF1 / RFU, TFRC / Fold change vs veh, TFRC / RFU, ZDHHC17 / Fold change vs veh, ZDHHC17 / RFU, NOM1 / Fold change vs veh, NOM1 / RFU, ARL8B / Fold change vs veh, ARL8B / RFU, ZBTB11 / Fold change vs veh, ZBTB11 / RFU, TAMM41 / Fold change vs veh, TAMM41 / RFU, KIAA1704 /// LOC100996395 / Fold change vs veh, KIAA1704 /// LOC100996395 / RFU, ING1 / Fold change vs veh, ING1 / RFU, TRMT61B / Fold change vs veh, TRMT61B / RFU, FUBP3 / Fold change vs veh, FUBP3 / RFU, TP53 / Fold change vs veh, TP53 / RFU, TNKS2 / Fold change vs veh, TNKS2 / RFU, ZFP14 / Fold change vs veh, ZFP14 / RFU, ACTR2 / Fold change vs veh, ACTR2 / RFU, PPP3R1 / Fold change vs veh, PPP3R1 / RFU, PIK3R1 / Fold change vs veh, PIK3R1 / RFU, HNRNPA1 / Fold change vs veh, HNRNPA1 / RFU, RNF170 / Fold change vs veh, RNF170 / RFU, ZNF28 / Fold change vs veh, ZNF28 / RFU, RNGTT / Fold change vs veh, RNGTT / RFU, OGT / Fold change vs veh, OGT / RFU, BRD1 / Fold change vs veh, BRD1 / RFU, MARS / Fold change vs veh, MARS / RFU, ZNF655 / Fold change vs veh, ZNF655 / RFU, FAHD1 / Fold change vs veh, FAHD1 / RFU, BDP1 / Fold change vs veh, BDP1 / RFU, LRRCC1 / Fold change vs veh, LRRCC1 / RFU, ARID1A / Fold change vs veh, ARID1A / RFU, ZNF146 / Fold change vs veh, ZNF146 / RFU, ZNF330 / Fold change vs veh, ZNF330 / RFU, GPN3 / Fold change vs veh, GPN3 / RFU, C9orf123 / Fold change vs veh, C9orf123 / RFU, N4BP2L2 / Fold change vs veh, N4BP2L2 / RFU, ARFIP1 / Fold change vs veh, ARFIP1 / RFU, FAM179B / Fold change vs veh, FAM179B / RFU, BCL10 / Fold change vs veh, BCL10 / RFU, UHRF1BP1L / Fold change vs veh, UHRF1BP1L / RFU, BET1 / Fold change vs veh, BET1 / RFU, CNOT2 / Fold change vs veh, CNOT2 / RFU, ZNF268 / Fold change vs veh, ZNF268 / Fold change vs veh, ZNF507 / RFU, DGCR2 / Fold change vs veh, DGCR2 / RFU, WDSUB1 / Fold change vs veh, WDSUB1 / Fold change vs veh, HSP90B1 /// MIR3652 / RFU, ADSS / Fold change vs veh, ADSS / RFU, GK / Fold change vs veh, GK / RFU, ZNF148 / Fold change vs veh, ZNF148 / RFU, TAF9 / Fold change vs veh, TAF9 / RFU, SLC1A5 / Fold change vs veh, SLC1A5 / RFU, SLMO2 / Fold change vs veh, SLMO2 / RFU, ABCC4 / Fold change vs veh, ABCC4 / RFU, LOC101060439 /// RAP1B / Fold change vs veh, LOC101060439 /// RAP1B / RFU, RFX7 / Fold change vs veh, RFX7 / RFU, GTPBP10 / Fold change vs veh, GTPBP10 / RFU, CNEP1R1 / Fold change vs veh, CNEP1R1 / RFU, BIVM-ERCC5 /// ERCC5 / Fold change vs veh, BIVM-ERCC5 /// ERCC5 / RFU, ILF3 / Fold change vs veh, ILF3 / RFU 11762660_at / Fold change /veh 11762660_at / RFU VCAN (11757783_s_at) / Fold change /veh VCAN (11757783_s_at) / RFU DDX43 (11728927_at) / Fold change /veh DDX43 (11728927_at) / RFU KRT8 (11758188_x_at) / Fold change /veh KRT8 (11758188_x_at) / RFU NKD1 (11759106_at) / Fold change /veh NKD1 (11759106_at) / RFU SRD5A1 (11742802_a_at) / Fold change /veh SRD5A1 (11742802_a_at) / RFU TPSAB1 /// TPSB2 (11721975_s_at) / Fold change /veh TPSAB1 /// TPSB2 (11721975_s_at) / RFU GSTM3 (11746129_a_at) / Fold change /veh GSTM3 (11746129_a_at) / RFU IL23R (11737362_x_at) / Fold change /veh IL23R (11737362_x_at) / RFU TMEM51 (11727254_a_at) / Fold change /veh TMEM51 (11727254_a_at) / RFU PIWIL2 (11732686_x_at) / Fold change /veh PIWIL2 (11732686_x_at) / RFU ORM1 (11744905_x_at) / Fold change /veh ORM1 (11744905_x_at) / RFU CCDC152 (11743942_at) / Fold change /veh CCDC152 (11743942_at) / RFU ECM1 (11717891_a_at) / Fold change /veh ECM1 (11717891_a_at) / RFU IL23R (11748794_a_at) / Fold change /veh IL23R (11748794_a_at) / RFU TNFAIP8L3 (11732012_x_at) / Fold change /veh TNFAIP8L3 (11732012_x_at) / RFU MBOAT4 (11741988_at) / Fold change /veh MBOAT4 (11741988_at) / RFU 11764193_at / Fold change /veh 11764193_at / RFU TMEM53 (11763286_at) / Fold change /veh TMEM53 (11763286_at) / RFU MAGEB2 (11727129_at) / Fold change /veh MAGEB2 (11727129_at) / RFU TMEM200A (11744735_a_at) / Fold change /veh TMEM200A (11744735_a_at) / RFU CCDC152 (11751479_a_at) / Fold change /veh CCDC152 (11751479_a_at) / RFU FAM211A (11726209_a_at) / Fold change /veh FAM211A (11726209_a_at) / RFU RGS16 (11746705_a_at) / Fold change /veh RGS16 (11746705_a_at) / RFU VCAN (11755009_s_at) / Fold change /veh VCAN (11755009_s_at) / RFU RHOB (11743442_s_at) / Fold change /veh RHOB (11743442_s_at) / RFU RGS16 (11720943_a_at) / Fold change /veh RGS16 (11720943_a_at) / RFU RGS16 (11720944_at) / Fold change /veh RGS16 (11720944_at) / RFU, VPS4B / Fold change vs veh, VPS4B / RFU, CREB1 / Fold change vs veh, CREB1 / RFU, DNAJC13 / Fold change vs veh, DNAJC13 / RFU, GNAQ / Fold change vs veh, GNAQ / RFU, CDK5R1 / Fold change vs veh, CDK5R1 / RFU, ZRANB3 / Fold change vs veh, ZRANB3 / RFU, CUL4A / Fold change vs veh, CUL4A / RFU, CCNY / Fold change vs veh, CCNY / RFU, UFL1 / Fold change vs veh, UFL1 / RFU, COG3 / Fold change vs veh, COG3 / RFU, DIAPH2 / Fold change vs veh, DIAPH2 / RFU, SKA2 / Fold change vs veh, SKA2 / RFU, AFF3 / Fold change vs veh, AFF3 / RFU, LMF1 / Fold change vs veh, LMF1 / RFU, IPO11 / Fold change vs veh, IPO11 / RFU, DFFB / Fold change vs veh, DFFB / RFU, FOXP1 / Fold change vs veh, FOXP1 / RFU, CARD8 / Fold change vs veh, CARD8 / RFU, STRN3 / Fold change vs veh, STRN3 / RFU, ADK / Fold change vs veh, ADK / RFU, RASSF2 / Fold change vs veh, RASSF2 / RFU, WIPF1 / Fold change vs veh, WIPF1 / RFU, LARP1B / Fold change vs veh, LARP1B / RFU, RASA1 / Fold change vs veh, RASA1 / RFU, RB1 / Fold change vs veh, RB1 / RFU, PPFIA1 / Fold change vs veh, PPFIA1 / RFU, MAT2A / Fold change vs veh, MAT2A / RFU, CCT5 / Fold change vs veh, CCT5 / RFU, WDR92 / Fold change vs veh, WDR92 / RFU, CUX1 / Fold change vs veh, CUX1 / RFU, TTC7A / Fold change vs veh, TTC7A / RFU, TMEM135 / Fold change vs veh, TMEM135 / RFU, DEPTOR / Fold change vs veh, DEPTOR / RFU, CPM / Fold change vs veh, CPM / RFU, DNAJB6 / Fold change vs veh, DNAJB6 / RFU, CACNA2D3 / Fold change vs veh, CACNA2D3 / RFU, DTX4 / Fold change vs veh, DTX4 / RFU, TFCP2 / Fold change vs veh, TFCP2 / RFU, GMCL1 /// GMCL1P1 / Fold change vs veh, GMCL1 /// GMCL1P1 / RFU, AEBP2 / Fold change vs veh, AEBP2 / RFU, SNHG1 /// SNORD22 /// SNORD25 /// SNORD26 /// SNORD27 /// SNORD28 /// SNORD29 /// SNORD31 / Fold change vs veh, SNHG1 /// SNORD22 /// SNORD25 /// SNORD26 /// SNORD27 /// SNORD28 /// SNORD29 /// SNORD31 / Fold change (Aza/veh), C12orf56 (ProbeSet 11735607_a_at) / Fold change (ACY-1035/veh), C12orf56 (ProbeSet 11735607_a_at) / Fold change (Aza/veh), FGFR1OP (ProbeSet 11751329_s_at) / Fold change (ACY-1035/veh), FGFR1OP (ProbeSet 11751329_s_at) / Fold change (Aza/veh), VPS36 (ProbeSet 11739960_a_at) / Fold change (ACY-1035/veh), VPS36 (ProbeSet 11739960_a_at) / RFU SYPL1 (11715823_x_at) / Fold change /veh SYPL1 (11715823_x_at) / RFU IGFBP7 (11715501_s_at) / Fold change /veh IGFBP7 (11715501_s_at) / RFU REEP3 (11722064_at) / Fold change /veh REEP3 (11722064_at) / RFU IGLL1 (11728026_x_at) / Fold change /veh IGLL1 (11728026_x_at): dose or concentration left out as unconfirmed
Details: ProbeSet 11725141_a_at; LIST B

With `Nc1ncn([C@@H]2O[C@H](CO)[C@@H](O)[C@H]2O)c(=O)n1` [azacitidine] the “Fold change vs veh, FUBP3” value was 0.84.
